Laboratory results: paper PMC12664080, “Tetrazole-containing naphthalene bis-sulfonamide Keap1-Nrf2 interaction inhibitors with unexpected binding modes” (Redox Biology, 2025)
Several values for one entry are separate records, joined by “and”; a condition that tells them apart may be missing. Equal values may be shown once.

Tests used:
Keap1 Kelch domain = biological target: T1, Keap1 Kelch domain (Homo sapiens, UniProt Q14145); assay: Differential scanning fluorimetry (DSF) thermal shift assay; type: binding; settings: 10 μM compound; Keap1 vehicle control Ti = 61.3 ± 0.3 °C
T1 construct: made in house
T1 sequence (Q14145 322-609): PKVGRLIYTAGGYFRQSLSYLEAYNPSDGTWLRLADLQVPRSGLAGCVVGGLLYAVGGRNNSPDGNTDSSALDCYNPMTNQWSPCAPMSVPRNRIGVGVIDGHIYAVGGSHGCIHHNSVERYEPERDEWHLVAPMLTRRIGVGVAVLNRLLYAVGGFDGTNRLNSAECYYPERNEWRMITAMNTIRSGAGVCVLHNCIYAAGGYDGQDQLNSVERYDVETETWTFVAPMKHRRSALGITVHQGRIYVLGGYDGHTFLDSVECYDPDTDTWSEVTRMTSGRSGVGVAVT
Method: The DSF assays were carried out according to the previously described method. Solutions of the Keap1 Kelch domain protein (5 μM final concentration) and the small molecule inhibitor (10 μM final concentration) were prepared in DPBS at pH 7.4 (10 % final DMSO concentration, 20 μL final volume) in an Eppendorf tube. The solution was centrifuged briefly (1500 rpm, 60 s) to remove any particulates and mix the samples, followed by a 30 min incubation at RT. The samples were loaded into Tycho NT.6 capillaries (Nanotemper) in triplicate and positioned in the […] instrument. […] The fluorescence ratio vs temperature was plotted and the inflection temperature (Ti) of the profile was recorded. Changes in inflection (ΔTi) for the inhibitors were calculated by subtracting the mean Ti of the Keap1 sample plus vehicle from the mean Keap1 plus binder value (n = 3).

Nrf2 [1] = assay: Nrf2 luciferase reporter assay (MCF7 ARE-luciferase reporter cell line); type: cell-based; settings: Homo sapiens, MCF7 cells
Method: The induction of luciferase activity in the stably transfected MCF7 ARE-luciferase reporter cell line was measured using an adaptation of a published procedure. […] The cells were treated with compound or vehicle control (1 % final DMSO concentration) and incubated for a further 24 h. The culture medium was aspirated and the cells were washed with 100 μL per well PBS. The cells were lysed using 75 μL per well lysis buffer (0.2 % Triton X-100 in 25 mM Tris pH 7.5) under gentle agitation at rt for 30 min. The samples were transferred to 500 μL Eppendorf tubes and centrifuged at 10000 g for 5 min at 4 °C. 50 μL of supernatant from each sample were transferred to a new 96 well plate. 50 uL of working reagent (100 mM Tris pH 8.0, 5 mM MgCl2, 100 μM coenzyme A, 80 μM luciferin, and 5 mM ATP) were added to each well and the luciferase activity was measured.

Nrf2 [2] = assay: Immunoblotting of Nrf2 and HO-1 in Hepa1c1c7 cells; type: cell-based, mouse; settings: 6-h incubation, 10 μM or 50 μM
Method: Hepa1c1c7 cells (5 × 10^5 cells/well, n = 3) were seeded on six-well plates, and on the next day were treated with compound 25 (10 μM or 50 μM) or vehicle (0.1 % DMSO) for 6 h. Cells were washed twice in PBS, and lysed in 200 μL of SDS lysis buffer containing 2 % SDS, 62.5 mM Tris-HCl pH 6.8 and 10 % glycerol. The cell lysates were boiled for 3 min, sonicated for 25 s (25 %, 4 s on, 1 s off), supplemented with DTT up to 0.1 M and Bromophenol Blue, and snap-frozen. The lysates were thawed, and 20 μg of total protein was separated on a pre-cast NuPage gel under MOPS buffer, transferred onto nitrocellulose membrane and blotted with anti-Nrf2 (Cell Signaling Technology, clone D1Z9C, 1:1000 dilution), anti-HO1 (Abcam, ab13243, 1:2000 dilution) or anti-alpha tubulin (Abcam, clone EP1332Y, 1:5000 dilution) in 5 % milk in PBS with 0.1 % Tween, followed by appropriate secondary antibodies (LiCor BioSciences, 1:15000 dilutuon) and scanned using Odyssey CLx Imaging System.

Nrf2 target genes = assay: Gene expression analysis (real-time quantitative PCR) in Hepa1c1c7 cells; type: cell-based, mouse; settings: 16-h incubation, 10 μM or 50 μM
Method: Hepa1c1c7 cells (5 × 10^5 cells/well, n = 3) were seeded on six-well plates, and on the next day were treated with compound 25 (10 μM or 50 μM) or vehicle (0.1 % DMSO) for 16 h. After two washes with PBS, the cells were lysed. RNA was then extracted, cDNA was synthesised, and the levels of mRNA for each gene were determined by real-time quantitative PCR (TaqMan). The levels of 18S mRNA in each sample were used as a control for normalization.

Keap1 = Keap1 (Homo sapiens, UniProt Q14145); assay: Microscale thermophoresis (MST)
Keap1, sequence (Q14145 322-609): as above
Method: Keap1 was labelled using the Protein Labelling Kit RED-NHS 2nd Generation (NanoTemper, München, Germany). Keap1 was diluted to 2 μM in RED-NHS Labelling Buffer. 10 μg of RED-NHS 2nd Generation labelling dye was freshly dissolved in 25 μL of DMSO to yield a concentration of 600 μM, then further diluted in RED-NHS Labelling Buffer to 300 μM. A volume of 20 μL of the 300 μM labelling dye was thoroughly mixed with 180 μL of 2 μM Keap1 and incubated at rt in a dark environment for 3 h. […] The sample was transferred to the centre of the resin bed in the B-column. 550 μL of Keap1 MST buffer was pipetted into the B-column and allowed to enter completely, followed by elution of the sample with 450 μL of Keap1 MST buffer and the flow-through was collected into a 1.5 mL Eppendorf tube. The collected sample was centrifuged at 15,000×g for 10 min at 4 °C to remove aggregates. Protein concentration in the collected sample was determined using the NanoDrop spectrophotometer. The sample was then tested in MST pre-test to evaluate the labelling quality.
Labelled Keap1 was diluted to 20 nM in Keap1 MST buffer prior to the reaction setup. […] An equal volume of 20 nM Keap1 was thoroughly mixed with each diluted sample and incubated for 30 min at rt. […] An equal volume of 2 nM Keap1 was mixed with each diluted sample and incubated at rt for 30 min. Incubated samples were loaded into Monolith NT.115 standard capillaries and measured using the Monolith NT.115^Pico instrument in triplicate. Parameters and measurements were set and controlled by the MO.Control software and collected datasets were analysed using the MO.Affinity Analysis software.

[3] = 1D 1H NMR lineshape analysis of cis/trans rotamer exchange
Method: Exchange was quantified using a two-site exchange model [40] implemented in Julia, where resonances were fitted to calculate chemical shifts of the two states and the exchange rates kAB and kBA between them. […] Reported uncertainties were determined from the standard errors of the fits.
Exchange rates kAB and kBA were used to determine the relative populations pA=kBA/kAB+kBA and pB=kAB/kAB+kBA and were fitted to van't Hoff and Eyring equations (with unit transmission coefficient) to estimate the enthalpy and entropy changes and enthalpy and entropy of activation.

[4] = D2O PBS buffer, pH* ~7.4, lineshape

SMILES: COc1ccc(S(=O)(=O)N(CC(=O)O)c2ccc(N(Cc3nnn[nH]3)S(=O)(=O)c3ccc(OC)cc3)c3ccccc23)cc1 [Compound 25, N-(4-((N-((1H-tetrazol-5-yl)methyl)-4-methoxyphenyl)sulfonamido)naphthalen-1-yl)-N-((4-methoxyphenyl)sulfonyl)glycine]
- DSF ΔTi (Keap1 Kelch domain): 19.4 ± 0.4 °C
- fold induction at 10 µM (Nrf2 [1]; 10 μM, 24 h): 1.48
- fold induction at 100 µM (Nrf2 [1]; 100 μM (highest test concentration), read-out: peak fold induction of luciferase activity): 5.66
- protein levels of Nrf2 (Nrf2 [2]): increased
- protein levels of heme oxygenase 1 (HO-1) (Nrf2 [2]): increased
- mRNA levels for Nrf2 target genes (NQO1, HO-1, GstP, Gclm, Gclc) (Nrf2 target genes): increased
- Kd (Keap1; 1 nM Keap1): 2.1 ± 0.5 nM
- Kd (Keap1; 10 nM Keap1): 24.3 ± 4.7 nM
- Occupancy of the more shielded state (A) ([3]; D2O PBS buffer (pH* ~7.4), 300 K): 0.606 ±0.003
- Occupancy of the more shielded state (A) ([3]; D2O PBS buffer (pH* ~7.4), 310 K): 0.586 ±0.001
- Occupancy of the more shielded state (A) ([3]; D2O PBS buffer (pH* ~7.4), 320 K): 0.567 ±0.001
- kA→B ([3]; D2O PBS buffer, 300 K, lineshape): 1.432 s^-1 and 1.432 ±0.015^c s^-1
- kA→B ([3]; D2O PBS buffer, 310 K, lineshape): 3.488 ±0.014^c s^-1
- kA→B ([3]; D2O PBS buffer, 320 K, lineshape): 8.912 ±0.024^c s^-1
- ΔHAB [3, 4]: 6.532 ± 0.022 kJ/mol
- ΔH^‡AB [3, 4]: 73.0 ± 2.3 kJ/mol
- ΔSAB [3, 4]: 18.19 ± 0.07
- ΔS^‡AB [3, 4]: 0.65 ± 7.2
- Occupancy of the more shielded state (A) ([3]; DMSO, 300 K): 0.486 ±0.003
- kA→B ([3]; DMSO, 300 K, lineshape): 3.059 ± 0.029 s⁻¹
- Occupancy of the more shielded state (A) ([3]; DMSO, 310 K): 0.491 ±0.001
- kA→B ([3]; DMSO, 310 K, lineshape): 3.982 ± 0.007 s⁻¹
- Occupancy of the more shielded state (A) ([3]; DMSO, 320 K): 0.496 ±0.0005
- kA→B ([3]; DMSO, 320 K, lineshape): 8.749 ± 0.012 s⁻¹
- ΔH^‡AB ([3]; DMSO, lineshape, Eyring): 48.0 ± 13.0 kJ/mol
- ΔS^‡AB ([3]; DMSO, lineshape, Eyring): -79 ± 41
- ΔSAB ([3]; DMSO, lineshape, van't Hoff): -5.26 ± 0.17
